Assay results taken from ChEMBL document CHEMBL1759997, “Discovery of a piperazine urea based compound as a potent, selective, orally bioavailable melanocortin subtype-4 receptor partial agonist” (Bioorg Med Chem Lett, 2011).
Calls of active or inactive are those of the source. The rule behind the calls is not given here.

Experiments:
[1] = molecular target: T1, Melanocyte-stimulating hormone receptor (Homo sapiens, UniProt Q01726); experiment: Displacement of [125I]NDP-alpha-MSH from human MC1 receptor expressed in CHO cells; type: cell-based
Target sequence in this assay (Q01726 whole entry): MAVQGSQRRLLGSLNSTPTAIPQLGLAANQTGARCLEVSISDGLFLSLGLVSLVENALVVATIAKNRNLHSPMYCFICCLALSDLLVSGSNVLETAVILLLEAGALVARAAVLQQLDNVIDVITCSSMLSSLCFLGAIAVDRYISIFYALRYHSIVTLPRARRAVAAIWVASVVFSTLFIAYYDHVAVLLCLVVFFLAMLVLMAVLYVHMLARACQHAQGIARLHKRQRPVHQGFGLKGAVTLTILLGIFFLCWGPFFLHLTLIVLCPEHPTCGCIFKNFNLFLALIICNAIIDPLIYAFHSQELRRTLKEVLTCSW

Melanocortin receptor 3 [2] = molecular target: T2, Melanocortin receptor 3 (Homo sapiens, UniProt P41968); experiment: Displacement of [125I]NDP-alpha-MSH from human MC3 receptor expressed in CHO cells; type: cell-based
Melanocortin receptor 4 [3] = molecular target: T3, Melanocortin receptor 4 (Homo sapiens, UniProt P32245); experiment: Displacement of [125I]NDP-alpha-MSH from human MC4 receptor expressed in CHO cells; type: cell-based
Melanocortin receptor 5 [4] = molecular target: T4, Melanocortin receptor 5 (Homo sapiens, UniProt P33032); experiment: Displacement of [125I]NDP-alpha-MSH from human MC5 receptor expressed in CHO cells; type: cell-based
[5] = molecular target: T1, Melanocyte-stimulating hormone receptor; experiment: Agonist activity at human MC1 receptor expressed in CHO cells assessed as cAMP accumulation; type: functional, cell-based
Target sequence in this assay (Q01726 whole entry): as above

Melanocortin receptor 5 [6] = molecular target: T4, Melanocortin receptor 5; experiment: Agonist activity at human MC5 receptor expressed in CHO cells assessed as cAMP accumulation; type: functional, cell-based
[7] = molecular target: T1, Melanocyte-stimulating hormone receptor; experiment: Agonist activity at human MC1 receptor expressed in CHO cells assessed as cAMP accumulation at 10 uM relative to alpha-MSH; type: functional, cell-based
Target sequence in this assay (Q01726 whole entry, looked up): as the sequence (Q01726 whole entry) above

Melanocortin receptor 3 [8] = molecular target: T2, Melanocortin receptor 3; experiment: Agonist activity at human MC3 receptor expressed in CHO cells assessed as cAMP accumulation at 10 uM relative to alpha-MSH; type: functional, cell-based
Melanocortin receptor 4 [9] = molecular target: T3, Melanocortin receptor 4; experiment: Agonist activity at human MC4 receptor expressed in CHO cells assessed as cAMP accumulation at 10 uM relative to alpha-MSH; type: functional, cell-based
Melanocortin receptor 5 [10] = molecular target: T4, Melanocortin receptor 5; experiment: Agonist activity at human MC5 receptor expressed in CHO cells assessed as cAMP accumulation at 10 uM relative to alpha-MSH; type: functional, cell-based
Melanocortin receptor 4 [11] = molecular target: T3, Melanocortin receptor 4; experiment: Agonist activity at human MC4 receptor expressed in CHO cells assessed as cAMP accumulation; type: functional, cell-based
[12] = Oral bioavailability in Sprague-Dawley rat at 1 mg/kg and 4 mg/kg; type: ADME, organism-based; conditions: in vivo
[13] = Clearance in Sprague-Dawley rat at 1 mg/kg, iv and 4 mg/kg, po; type: ADME, organism-based; conditions: in vivo
[14] = Volume of distribution in Sprague-Dawley rat at 1 mg/kg, iv and 4 mg/kg, po; type: ADME, organism-based; conditions: in vivo, read-out: Vdss
[15] = Half life in Sprague-Dawley rat at 1 mg/kg, iv and 4 mg/kg, po; type: ADME, organism-based; conditions: in vivo
[16] = Oral bioavailability in Beagle dog at 1 mg/kg; type: ADME, organism-based, Canis lupus familiaris; conditions: in vivo
[17] = Clearance in Beagle dog at 1 mg/kg, po; type: ADME, organism-based, Canis lupus familiaris; design: dose 1 mg/kg, route oral; conditions: in vivo
Canis familiaris = experiment: Volume of distribution in Beagle dog at 1 mg/kg, po; type: ADME, organism-based, Canis lupus familiaris; design: dose 1 mg/kg, route oral; conditions: in vivo
[18] = Half life in Beagle dog at 1 mg/kg, po; type: ADME, organism-based, Canis lupus familiaris; design: dose 1 mg/kg, route oral; conditions: in vivo
[19] = Oral bioavailability in rhesus monkey at 1 mg/kg; type: ADME, organism-based, Macaca mulatta; conditions: in vivo
[20] = Clearance in rhesus monkey at 1 mg/kg, po; type: ADME, organism-based, Macaca mulatta; design: dose 1 mg/kg, route oral; conditions: in vivo
Rhesus monkey = experiment: Volume of distribution in rhesus monkey at 1 mg/kg, po; type: ADME, organism-based, Macaca mulatta; design: dose 1 mg/kg, route oral; conditions: in vivo
[21] = Half life in rhesus monkey at 1 mg/kg, po; type: ADME, organism-based, Macaca mulatta; design: dose 1 mg/kg, route oral; conditions: in vivo
Mus musculus [22] = experiment: Antiobesity activity in wild type mouse assessed as reduction in food intake at 20 mg/kg after 4 hrs post dosing relative to control; type: functional; design: scale not given: the % may be the effect or the level left
Mus musculus [23] = experiment: Antiobesity activity in MC3R/MC4R knockout mouse assessed as reduction in food intake at 20 mg/kg after 4 hrs post dosing relative to control; type: functional, organism-based; design: dose 20 mg/kg
Rattus norvegicus [24] = experiment: Antiobesity activity in diet-induced obesity rat model assessed as reduction in body weight at 5 mg/kg, po BID for 14 days relative to control; type: functional, organism-based; design: dose 5 mg/kg
Rattus norvegicus [25] = experiment: Antiobesity activity in diet-induced obesity rat model assessed as reduction in body weight at 10 mg/kg, po BID for 14 days relative to control; type: functional, organism-based; design: dose 10 mg/kg
Rattus norvegicus [26] = experiment: Antiobesity activity in diet-induced obesity rat model assessed as reduction in body weight at 20 mg/kg, po BID for 14 days relative to control; type: functional, organism-based; design: dose 20 mg/kg
[27] = Plasma concentration in rat at 10 mg/kg, iv after 15 mins; type: ADME, organism-based; design: dose 10 mg/kg, route intravenous
Mus musculus [28] = experiment: Increase in erectile activity in CN-stimulated mouse at 10 mg/kg, iv; type: functional, organism-based; design: dose 10 mg/kg
Mus musculus [29] = experiment: Antiobesity activity in diet-induced obesity mouse model assessed as reduction in food intake at 20 mg/kg after 4 hrs post dosing relative to control; type: functional, organism-based; design: dose 20 mg/kg
[30] = molecular target: Voltage-gated inwardly rectifying potassium channel KCNH2 (Homo sapiens, UniProt Q12809); experiment: Inhibition of human ERG
[31] = Binding affinity to calcium channel
[32] = Binding affinity to sodium channel
Mus musculus [33] = experiment: Increase in erectile activity in CN-stimulated mouse at 0.3 mg/kg, iv; type: functional, organism-based; design: dose 0.3 mg/kg
[34] = Plasma concentration in rat at 0.3 mg/kg, iv after 15 mins; type: ADME, organism-based; design: dose 0.3 mg/kg, route intravenous

T3 sequence (P32245 whole entry): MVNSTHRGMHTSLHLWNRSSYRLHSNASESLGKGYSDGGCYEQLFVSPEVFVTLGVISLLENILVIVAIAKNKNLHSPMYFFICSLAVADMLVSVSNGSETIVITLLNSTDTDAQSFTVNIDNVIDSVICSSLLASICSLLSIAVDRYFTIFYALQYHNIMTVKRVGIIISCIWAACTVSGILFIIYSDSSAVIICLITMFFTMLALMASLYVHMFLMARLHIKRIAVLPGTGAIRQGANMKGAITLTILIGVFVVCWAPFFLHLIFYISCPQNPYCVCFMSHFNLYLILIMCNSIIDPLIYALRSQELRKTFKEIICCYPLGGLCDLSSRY
T2 sequence (P41968 whole entry): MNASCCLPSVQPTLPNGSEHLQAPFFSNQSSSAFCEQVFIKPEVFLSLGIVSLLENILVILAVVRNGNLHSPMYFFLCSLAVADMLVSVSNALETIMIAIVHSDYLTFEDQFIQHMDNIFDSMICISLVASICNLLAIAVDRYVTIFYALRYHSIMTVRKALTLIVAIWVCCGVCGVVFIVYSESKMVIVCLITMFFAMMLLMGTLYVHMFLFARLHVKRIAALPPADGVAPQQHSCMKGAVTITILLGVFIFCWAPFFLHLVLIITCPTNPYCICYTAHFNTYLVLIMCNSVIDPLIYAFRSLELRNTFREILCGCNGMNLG
T4 sequence (P33032 whole entry): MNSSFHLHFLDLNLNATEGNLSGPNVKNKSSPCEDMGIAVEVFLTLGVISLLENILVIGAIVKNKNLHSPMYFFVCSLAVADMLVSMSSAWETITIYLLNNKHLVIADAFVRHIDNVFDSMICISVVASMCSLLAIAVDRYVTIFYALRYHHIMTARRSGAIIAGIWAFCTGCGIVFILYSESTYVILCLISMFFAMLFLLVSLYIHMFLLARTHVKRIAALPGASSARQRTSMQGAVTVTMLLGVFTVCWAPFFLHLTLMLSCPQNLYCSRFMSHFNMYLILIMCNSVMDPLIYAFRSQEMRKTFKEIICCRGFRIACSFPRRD
Voltage-gated inwardly rectifying potassium channel KCNH2, sequence (Q12809 whole entry): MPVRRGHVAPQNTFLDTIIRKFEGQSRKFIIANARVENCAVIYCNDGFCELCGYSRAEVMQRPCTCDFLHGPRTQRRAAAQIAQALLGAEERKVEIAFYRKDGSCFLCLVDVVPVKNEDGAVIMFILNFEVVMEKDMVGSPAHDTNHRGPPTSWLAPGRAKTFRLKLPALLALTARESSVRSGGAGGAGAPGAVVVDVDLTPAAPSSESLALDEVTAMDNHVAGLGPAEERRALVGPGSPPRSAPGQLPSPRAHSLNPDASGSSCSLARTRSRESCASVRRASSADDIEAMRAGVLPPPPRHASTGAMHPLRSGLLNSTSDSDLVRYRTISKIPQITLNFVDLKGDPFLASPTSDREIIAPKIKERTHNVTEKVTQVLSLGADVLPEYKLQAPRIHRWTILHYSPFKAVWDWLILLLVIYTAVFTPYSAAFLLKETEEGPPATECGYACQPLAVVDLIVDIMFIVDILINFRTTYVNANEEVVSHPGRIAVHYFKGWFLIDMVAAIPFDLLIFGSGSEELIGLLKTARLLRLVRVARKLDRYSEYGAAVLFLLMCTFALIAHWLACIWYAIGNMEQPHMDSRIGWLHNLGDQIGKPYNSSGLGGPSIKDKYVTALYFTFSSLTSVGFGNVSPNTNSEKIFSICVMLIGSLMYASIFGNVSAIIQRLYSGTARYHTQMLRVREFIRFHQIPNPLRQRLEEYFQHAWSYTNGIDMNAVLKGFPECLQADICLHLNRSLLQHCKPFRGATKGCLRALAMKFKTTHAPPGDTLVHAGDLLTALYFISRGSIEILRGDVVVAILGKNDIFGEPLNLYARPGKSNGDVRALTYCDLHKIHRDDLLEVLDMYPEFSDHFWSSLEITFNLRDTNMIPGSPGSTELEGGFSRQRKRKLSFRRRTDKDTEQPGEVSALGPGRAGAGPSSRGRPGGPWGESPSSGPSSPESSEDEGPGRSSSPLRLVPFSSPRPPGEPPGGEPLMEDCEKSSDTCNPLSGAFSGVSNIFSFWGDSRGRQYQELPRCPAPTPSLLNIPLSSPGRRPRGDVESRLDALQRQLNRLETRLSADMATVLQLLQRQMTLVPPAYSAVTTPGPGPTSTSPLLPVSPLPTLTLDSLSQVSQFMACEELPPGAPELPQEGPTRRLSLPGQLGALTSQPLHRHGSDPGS

C[C@@H]1CN(C(=O)N[C@H](Cc2ccc(Cl)cc2)C(=O)N2CCC(C(=O)NC(C)(C)C)(C3CCCCC3)CC2)C[C@H](C)N1 showed an IC50 [1] of 1500 nM, an IC50 (Melanocortin receptor 3 [2]) of 33 nM and an IC50 (Melanocortin receptor 4 [3]) of 0.78 nM. It also gave an IC50 (Melanocortin receptor 5 [4]) of 54 nM, an EC50 [5] of 280 nM and an EC50 (Melanocortin receptor 5 [6]) of 210 nM. It also gave an Activity [7] of 24%, an Activity (Melanocortin receptor 3 [8]) of 1.3% and an Activity (Melanocortin receptor 4 [9]) of 15%. The Activity (Melanocortin receptor 5 [10]) was 26%.
With CC[C@@H]1CN(C(=O)N[C@H](Cc2ccc(F)cc2)C(=O)N2CCC(C(=O)NC(C)(C)C)(C3CCCCC3)CC2)C[C@H](CC)N1 the IC50 [1] was 2100 nM, the IC50 (Melanocortin receptor 3 [2]) was 230 nM and the IC50 (Melanocortin receptor 4 [3]) was 4.7 nM. It also gave an IC50 (Melanocortin receptor 5 [4]) of 430 nM, an EC50 [5] of 420 nM and an EC50 (Melanocortin receptor 4 [11]) of 13 nM. It also gave an Activity [7] of 24%, an Activity (Melanocortin receptor 3 [8]) of 1.2% and an Activity (Melanocortin receptor 4 [9]) of 41%. The Activity (Melanocortin receptor 5 [10]) was 14%, the bioavailability [12] was 46% and the clearance [13] was 36 mL/min/kg. It also gave a Vd [14] of 4.7 L/kg and a half-life [15] of 1.7 h.
Work on C[C@@H]1CN(C(=O)N[C@H](Cc2ccc(F)cc2)C(=O)N2CCC(C(=O)NC(C)(C)C)(C3CCCCC3)CC2)C[C@H](C)N1 yielded an IC50 [1] of 5100 nM, an IC50 (Melanocortin receptor 3 [2]) of 650 nM and an IC50 (Melanocortin receptor 4 [3]) of 4.9 nM. It also gave an IC50 (Melanocortin receptor 5 [4]) of 850 nM, an EC50 (Melanocortin receptor 4 [11]) of 22 nM and an EC50 (Melanocortin receptor 5 [6]) of over 3000 nM. For the same compound, the Activity [7] was 30%, the Activity (Melanocortin receptor 3 [8]) was 3.6% and the Activity (Melanocortin receptor 4 [9]) was 59%. The Activity (Melanocortin receptor 5 [10]) was 22%, the bioavailability [12] was 28% and the clearance [13] was 35 mL/min/kg. The Vd [14] was 4.7 L/kg, the half-life [15] was 2 h and the bioavailability [16] was 118%. It also gave a CL/F [17] of 5.4 mL/min/kg, a Vdss (Canis familiaris) of 1.8 L/kg and a half-life [18] of 5.1 h. The bioavailability [19] was 20%, the CL/F [20] was 5.2 mL/min/kg and the Vdss (Rhesus monkey) was 1 L/kg. The half-life [21] was 5.3 h, the Activity (Mus musculus [22]) was 37% and the Activity (Mus musculus [23]) was “inactive”. For the same compound, the Activity (Rattus norvegicus [24]) was “Active”, the Activity (Rattus norvegicus [25]) was “Active” and the Activity (Rattus norvegicus [26]) was “Active”. For the same compound, the concentration at 0.25 h [27] was 4700 nM, the Activity (Mus musculus [28]) was “inactive” and the Activity (Mus musculus [29]) was “Active”. It also gave an INH [30] of over 10 µM, an Activity [31] of 9.6 µM and an Activity [32] of 6.8 µM.
For CC[C@H](NC(C)=O)c1cc(Cl)ccc1C1CCN(C(=O)[C@@H]2CN(C(C)(C)C)C[C@H]2c2ccc(F)cc2F)CC1, the Activity (Rattus norvegicus [25]) was “Active”, the Activity (Mus musculus [28]) was “Active” and the Activity (Mus musculus [33]) was “Active”. It also gave a concentration at 0.25 h [34] of 47 nM.
C[C@@H]1CN(C(=O)N[C@H](Cc2ccc(F)cc2)C(=O)N2CCC(C(=O)NC(C)(C)C)(C3CCCCC3)CC2)C[C@@H](C)N1 showed an IC50 [1] of 2100 nM, an IC50 (Melanocortin receptor 3 [2]) of 970 nM and an IC50 (Melanocortin receptor 4 [3]) of 11 nM. For the same compound, the IC50 (Melanocortin receptor 5 [4]) was 1400 nM, the EC50 [5] was 260 nM and the EC50 (Melanocortin receptor 4 [11]) was 18 nM. The EC50 (Melanocortin receptor 5 [6]) was 1000 nM, the Activity [7] was 39% and the Activity (Melanocortin receptor 3 [8]) was 2.8%. It also gave an Activity (Melanocortin receptor 4 [9]) of 66%, an Activity (Melanocortin receptor 5 [10]) of 31% and a bioavailability [12] of 1.9%. The clearance [13] was 43 mL/min/kg, the Vd [14] was 9.2 L/kg and the half-life [15] was 4.2 h.
C[C@H]1CN(C(=O)N[C@H](Cc2ccc(F)cc2)C(=O)N2CCC(C(=O)NC(C)(C)C)(C3CCCCC3)CC2)C[C@H](C)N1 showed an IC50 [1] of 3300 nM, an IC50 (Melanocortin receptor 3 [2]) of 740 nM and an IC50 (Melanocortin receptor 4 [3]) of 12 nM. The IC50 (Melanocortin receptor 5 [4]) was 1400 nM, the EC50 [5] was 250 nM and the EC50 (Melanocortin receptor 4 [11]) was 58 nM. For the same compound, the EC50 (Melanocortin receptor 5 [6]) was 1400 nM, the Activity [7] was 46% and the Activity (Melanocortin receptor 3 [8]) was 2%. The Activity (Melanocortin receptor 4 [9]) was 58% and the Activity (Melanocortin receptor 5 [10]) was 30%.
Work on CC[C@@H]1CN(C(=O)N[C@H](Cc2ccc(F)cc2)C(=O)N2CCC(C(=O)NC(C)(C)C)(C3CCCCC3)CC2)C[C@@H](CC)N1 yielded an IC50 [1] of 2800 nM, an IC50 (Melanocortin receptor 3 [2]) of 390 nM and an IC50 (Melanocortin receptor 4 [3]) of 5.1 nM. For the same compound, the IC50 (Melanocortin receptor 5 [4]) was 1300 nM, the EC50 [5] was 400 nM and the Activity [7] was 31%. It also gave an Activity (Melanocortin receptor 3 [8]) of 0%, an Activity (Melanocortin receptor 4 [9]) of 18% and an Activity (Melanocortin receptor 5 [10]) of 1%. It also gave a bioavailability [12] of 18%, a clearance [13] of 62 mL/min/kg and a Vd [14] of 8.2 L/kg. For the same compound, the half-life [15] was 1.8 h.
C[C@@H]1CN(C(=O)N[C@H](Cc2ccc(F)cc2)C(=O)N2CCC(C(=O)NC(C)(C)C)(C3CCCCC3)CC2)C[C@H](C)N1C gave an IC50 [1] of 7800 nM, an IC50 (Melanocortin receptor 3 [2]) of 760 nM and an IC50 (Melanocortin receptor 4 [3]) of 16 nM. It also gave an IC50 (Melanocortin receptor 5 [4]) of 1400 nM, an EC50 [5] of 910 nM and an EC50 (Melanocortin receptor 4 [11]) of 60 nM. For the same compound, the Activity [7] was 14%, the Activity (Melanocortin receptor 3 [8]) was 0.6% and the Activity (Melanocortin receptor 4 [9]) was 21%. The Activity (Melanocortin receptor 5 [10]) was 14%.
